In PubChem BioAssay (NCI):
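Cultured in 96-well plates, cells were exposed to test compound for 48 hours across five concentrations. The concentration for full growth arrest is given as TGI.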

Tests used:
Assay in all cases: growth of human tumour cells (NCI), 48 h
786-0 renal = tested on: 786-0 renal
A498 renal = tested on: A498 renal
A549 NSCLC = tested on: A549 NSCLC
ACHN renal = tested on: ACHN renal
BT-549 breast = tested on: BT-549 breast
CAKI-1 renal = tested on: CAKI-1 renal
CCRF-CEM leukemia = tested on: CCRF-CEM leukemia
COLO 205 colon = tested on: COLO 205 colon
DU-145 prostate = tested on: DU-145 prostate
EKVX NSCLC = tested on: EKVX NSCLC
HCC-2998 colon = tested on: HCC-2998 colon
HCT-116 colon = tested on: HCT-116 colon
HCT-15 colon = tested on: HCT-15 colon
HOP-62 NSCLC = tested on: HOP-62 NSCLC
HOP-92 NSCLC = tested on: HOP-92 NSCLC
HS 578T breast = tested on: HS 578T breast
HT29 colon = tested on: HT29 colon
IGROV1 ovarian = tested on: IGROV1 ovarian
K-562 leukemia = tested on: K-562 leukemia
KM12 colon = tested on: KM12 colon
LOX IMVI melanoma = tested on: LOX IMVI melanoma
M14 melanoma = tested on: M14 melanoma
MALME-3M melanoma = tested on: MALME-3M melanoma
MCF7 breast = tested on: MCF7 breast
MDA-MB-435 = tested on: MDA-MB-435
MDA-N = tested on: MDA-N
MOLT-4 leukemia = tested on: MOLT-4 leukemia
NCI-H226 lung = tested on: NCI-H226 lung
NCI-H23 lung = tested on: NCI-H23 lung
NCI-H460 lung = tested on: NCI-H460 lung
NCI-H522 lung = tested on: NCI-H522 lung
NCI/ADR-RES ovarian = tested on: NCI/ADR-RES ovarian
OVCAR-3 ovarian = tested on: OVCAR-3 ovarian
OVCAR-4 ovarian = tested on: OVCAR-4 ovarian
OVCAR-5 ovarian = tested on: OVCAR-5 ovarian
OVCAR-8 ovarian = tested on: OVCAR-8 ovarian
PC-3 prostate = tested on: PC-3 prostate
RPMI-8226 leukemia = tested on: RPMI-8226 leukemia
RXF 393 renal = tested on: RXF 393 renal
SF-268 CNS = tested on: SF-268 CNS
SF-295 CNS = tested on: SF-295 CNS
SK-MEL-28 melanoma = tested on: SK-MEL-28 melanoma
SK-MEL-5 melanoma = tested on: SK-MEL-5 melanoma
SK-OV-3 ovarian = tested on: SK-OV-3 ovarian
SN12C renal = tested on: SN12C renal
SNB-19 CNS = tested on: SNB-19 CNS
SW-620 colon = tested on: SW-620 colon
T-47D breast = tested on: T-47D breast
TK-10 renal = tested on: TK-10 renal
U251 CNS = tested on: U251 CNS
UACC-257 melanoma = tested on: UACC-257 melanoma
UACC-62 melanoma = tested on: UACC-62 melanoma
UO-31 renal = tested on: UO-31 renal
MDA-MB-231 breast = tested on: MDA-MB-231 breast
SF-539 CNS = tested on: SF-539 CNS
SK-MEL-2 melanoma = tested on: SK-MEL-2 melanoma
SNB-75 CNS = tested on: SNB-75 CNS
SR leukemia = tested on: SR leukemia

Structure (SMILES): CC(=O)Nc1ccc2c(c1)C(=Nc1ccc(C(=O)O)cc1)c1ccccc1-2
- TGI (786-0 renal): > 100 µM
- TGI (A498 renal): > 100 µM
- TGI (A549 NSCLC): > 100 µM
- TGI (ACHN renal): > 100 µM
- TGI (BT-549 breast): > 100 µM
- TGI (CAKI-1 renal): > 100 µM
- TGI (CCRF-CEM leukemia): > 100 µM
- TGI (COLO 205 colon): > 100 µM
- TGI (DU-145 prostate): > 100 µM
- TGI (EKVX NSCLC): 84.9 µM
- TGI (HCC-2998 colon): > 100 µM
- TGI (HCT-116 colon): > 100 µM
- TGI (HCT-15 colon): > 100 µM
- TGI (HOP-62 NSCLC): > 100 µM
- TGI (HOP-92 NSCLC): > 100 µM
- TGI (HS 578T breast): > 100 µM
- TGI (HT29 colon): > 100 µM
- TGI (IGROV1 ovarian): > 100 µM
- TGI (K-562 leukemia): > 100 µM
- TGI (KM12 colon): > 100 µM
- TGI (LOX IMVI melanoma): > 100 µM
- TGI (M14 melanoma): > 100 µM
- TGI (MALME-3M melanoma): > 100 µM
- TGI (MCF7 breast): > 100 µM
- TGI (MDA-MB-435): > 100 µM
- TGI (MDA-N): > 100 µM
- TGI (MOLT-4 leukemia): > 100 µM
- TGI (NCI-H226 lung): 87.1 µM
- TGI (NCI-H23 lung): > 100 µM
- TGI (NCI-H460 lung): > 100 µM
- TGI (NCI-H522 lung): > 100 µM
- TGI (NCI/ADR-RES ovarian): > 100 µM
- TGI (OVCAR-3 ovarian): > 100 µM
- TGI (OVCAR-4 ovarian): > 100 µM
- TGI (OVCAR-5 ovarian): > 100 µM
- TGI (OVCAR-8 ovarian): > 100 µM
- TGI (PC-3 prostate): > 100 µM
- TGI (RPMI-8226 leukemia): > 100 µM
- TGI (RXF 393 renal): > 100 µM
- TGI (SF-268 CNS): > 100 µM
- TGI (SF-295 CNS): > 100 µM
- TGI (SK-MEL-28 melanoma): > 100 µM
- TGI (SK-MEL-5 melanoma): > 100 µM
- TGI (SK-OV-3 ovarian): > 100 µM
- TGI (SN12C renal): > 100 µM
- TGI (SNB-19 CNS): > 100 µM
- TGI (SW-620 colon): > 100 µM
- TGI (T-47D breast): > 100 µM
- TGI (TK-10 renal): > 100 µM
- TGI (U251 CNS): > 100 µM
- TGI (UACC-257 melanoma): > 100 µM
- TGI (UACC-62 melanoma): > 100 µM
- TGI (UO-31 renal): > 100 µM

Structure (SMILES): COc1ccc2[nH]c3c(c2c1)CCc1ccccc1-3
- TGI (786-0 renal): > 100 µM
- TGI (A549 NSCLC): > 100 µM
- TGI (ACHN renal): > 100 µM
- TGI (BT-549 breast): > 100 µM
- TGI (CAKI-1 renal): > 100 µM
- TGI (CCRF-CEM leukemia): > 100 µM
- TGI (COLO 205 colon): > 100 µM
- TGI (DU-145 prostate): > 100 µM
- TGI (EKVX NSCLC): > 100 µM
- TGI (HCC-2998 colon): > 100 µM
- TGI (HCT-116 colon): > 100 µM
- TGI (HCT-15 colon): > 100 µM
- TGI (HOP-62 NSCLC): > 100 µM
- TGI (HOP-92 NSCLC): > 100 µM
- TGI (HS 578T breast): 37.4 µM
- TGI (HT29 colon): > 100 µM
- TGI (IGROV1 ovarian): > 100 µM
- TGI (K-562 leukemia): > 100 µM
- TGI (KM12 colon): > 100 µM
- TGI (LOX IMVI melanoma): > 100 µM
- TGI (M14 melanoma): > 100 µM
- TGI (MALME-3M melanoma): > 100 µM
- TGI (MCF7 breast): > 100 µM
- TGI (MDA-MB-231 breast): 76.1 µM
- TGI (MDA-MB-435): > 100 µM
- TGI (MDA-N): > 100 µM
- TGI (MOLT-4 leukemia): > 100 µM
- TGI (NCI-H226 lung): > 100 µM
- TGI (NCI-H23 lung): > 100 µM
- TGI (NCI-H460 lung): > 100 µM
- TGI (NCI-H522 lung): 79.7 µM
- TGI (NCI/ADR-RES ovarian): > 100 µM
- TGI (OVCAR-3 ovarian): > 100 µM
- TGI (OVCAR-4 ovarian): > 100 µM
- TGI (OVCAR-5 ovarian): > 100 µM
- TGI (OVCAR-8 ovarian): > 100 µM
- TGI (PC-3 prostate): > 100 µM
- TGI (SF-268 CNS): > 100 µM
- TGI (SF-295 CNS): > 100 µM
- TGI (SF-539 CNS): 32.1 µM
- TGI (SK-MEL-2 melanoma): > 100 µM
- TGI (SK-MEL-28 melanoma): > 100 µM
- TGI (SK-MEL-5 melanoma): > 100 µM
- TGI (SK-OV-3 ovarian): > 100 µM
- TGI (SN12C renal): > 100 µM
- TGI (SNB-19 CNS): > 100 µM
- TGI (SNB-75 CNS): 75.2 µM
- TGI (SR leukemia): > 100 µM
- TGI (SW-620 colon): > 100 µM
- TGI (T-47D breast): > 100 µM
- TGI (TK-10 renal): > 100 µM
- TGI (U251 CNS): > 100 µM
- TGI (UACC-257 melanoma): > 100 µM
- TGI (UACC-62 melanoma): > 100 µM
- TGI (UO-31 renal): > 100 µM
